This passage reports RP-LC retention time results from the METLIN SMRT retention time set (Domingo-Almenara et al. 2019).

This data set in a line: gradient 5% acetonitrile 3 min, to 50% in 2 min, to 85% in 15 min, held 3 min, 100 µL/min. Conditions: column: Zorbax Extend-C18 2.1 x 50 mm; eluents: water / acetonitrile, 0.1% formic acid. Put shortly:
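Pure standards were run in mixtures of ~100 molecules by HPLC coupled to a quadrupole time-of-flight mass spectrometer. The column was a Zorbax Extend-C18 (2.1 × 50 mm, 1.8 μm) at 100 μL/min, with water and acetonitrile each containing 0.1% formic acid, in positive and negative ionization mode. Dead and dwell volumes were 40 μL and 900 μL. Retention time was taken from computationally picked adduct peaks, each manually inspected, with data collected over 3 months.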
As to `COc1ccc(S(=O)(=O)CCCC(=O)Nc2nccs2)cc1`, the RP-LC retention time is 661 s. The value for `O=S(=O)(Cc1cccc(Cl)c1)NCC(c1ccc(F)cc1)N1CCOCC1` (stereo unspecified) was 609 s; that for `CCC(=O)N1CCc2c(C(=O)NC3CC3)cccc21` was 653 s. For the compound `COc1ccc(-c2c(C)noc2NC(C)=O)cc1S(=O)(=O)Nc1ccccc1Cl`, the RP-LC retention time worked out at 783 s. The same measure for `COCCN1CCn2cc(S(=O)(=O)Nc3ccc(C)c(F)c3)cc2C1=O`: 740 s.

With `COc1nccnc1N1CCC(N(C)C(=O)Cc2ccsc2)C1` (stereo unspecified), the RP-LC retention time amounted to 719 s. The value for `Cc1ccc(S(=O)(=O)N2CCC(n3c(-c4ccco4)nc4cccnc43)C2)cc1Cl` (stereo unspecified) was 999 s; that for `COc1ccc2[nH]c(=O)c(CCC(=O)NCCCN3CCCC(C)C3)cc2c1` (stereo unspecified) was 585 s. `Cc1nc(CC(=O)Nc2nc(-c3ccc(Cl)cc3)c(C)s2)cs1` came in with an RP-LC retention time of 983 s. Consider `Cc1ccc(S(=O)(=O)N2CCCCC2c2nncn2C)cc1F` (stereo unspecified), for which the RP-LC retention time was 736 s. The value for `O=C(C1CCCN(Cc2nc(-c3cccnc3)no2)C1)N1CCc2ccccc21` (stereo unspecified) was 595 s; that for `O=C(NCCCN1CCOCC1)C1CCc2sc(C(=O)N3CCCC3)cc2C1` (stereo unspecified) was 576 s; that for `Clc1ccc(-c2csc(N3CCOCC3)n2)c(Cl)c1` was 1260 s. The value for `COc1ccc(CNC(=O)C2CCN(c3ncnc4c3oc3ccccc34)CC2)c(OC)c1` was 752 s.

On to `COc1cc(N2CCN(C(=O)c3cnccn3)CC2)nc(C)n1`, for which the RP-LC retention time was 515 s. The same measure for `CCn1cc(-c2ccc(C)cc2)cc1C(=O)NCCOC`: 919 s; for `CC(C)n1nc(-c2nc(-c3cccc(Cl)c3)no2)ccc1=O`: 1150 s; for `Cc1ccccc1-c1noc(-c2cccnc2N2CCN(c3ccccc3)CC2)n1`: 1410 s. The value for `Cc1cccc(N(C)S(=O)(=O)c2ccsc2-c2nc(C)no2)c1` was 978 s; that for `O=C(NCc1nn(Cc2ccccc2)c2ccccc12)c1ccco1` was 853 s; that for `CCNC(=O)C1CCCN(c2nc3ncn(CC(=O)Nc4cc(F)ccc4C)c(=O)c3s2)C1` (stereo unspecified) was 689 s. Take `CCn1c(=O)c(N2CCCC(C(=O)NCCc3c[nH]c4ccc(Cl)cc34)C2)nc2ccccc21` (stereo unspecified): the RP-LC retention time was 1010 s. The same measure for `Cc1cc(N2CCN(C)CC2)nc2ccc(NC(=O)NC3CCCC3)cc12`: 568 s. `Cc1cccc(-c2nc(Cn3nnc(-c4nc(-c5ccncc5)no4)c3C)c(C)o2)c1` showed an RP-LC retention time of 1070 s. The value for `Cc1ccc(N2CCN(C(=O)c3cn4cc(C)ccc4n3)CC2)cc1` was 690 s.

In turn, `COc1ccc(-c2noc(-c3ccc(N4CCN(c5ncccn5)CC4)nc3)n2)cc1` showed an RP-LC retention time of 1150 s. The compound `COc1ccc2c(c1)C=C(C(=O)N(C)c1ccccc1)C=CO2` yielded an RP-LC retention time of 1030 s. The same measure for `O=C(CC1c2ncccc2C(=O)N1c1ccccc1)N1CCN(c2ccccn2)CC1` (stereo unspecified): 683 s; for `Cn1nc(-c2nc(C3CC3)no2)c2c1CCN(C(=O)c1ccc(C(C)(C)C)cc1)C2`: 1290 s; for `O=C(c1ccsc1)N1CC(c2nc(CCOCC3CCOCC3)no2)C1`: 696 s. The value for `Cc1cc(C(=O)Nc2nc3c(s2)CN(C(=O)c2snnc2C)CC3)no1` was 660 s; that for `Cc1ccccc1NC(=O)N1CCCC1c1nc(-c2cccc(Cl)c2)no1` (stereo unspecified) was 1050 s; that for `Cc1ccc2c(c1)N(C(=O)CCC(=O)NCCCN1CC(C)CC(C)C1)CC(C)O2` (stereo unspecified) was 704 s.

Regarding `CCCN1CCN(C(=O)c2cn(-c3cc(N4CCSCC4)ncn3)cn2)CC1`, the RP-LC retention time was determined as 605 s. The value for `O=C(NCCCS(=O)(=O)N1CCN(c2ncccn2)CC1)C1CC1` was 608 s; that for `COc1ccc(OCc2nc(-c3ccc(N4CCCCC4)nc3)no2)cc1` was 1010 s. The compound `O=C(Nc1nnc(-c2ccsc2)o1)c1ccno1` had an RP-LC retention time of 617 s. The same measure for `CC(C)OCCCNC(=O)C1CCN(S(=O)(=O)c2ccc(-c3noc(C4CC4)n3)cc2)CC1`: 890 s; for `CCn1cc(-c2ccc(Cl)cc2)cc1C(=O)NCCN1CCOCC1`: 705 s.

`Cn1nc(C(=O)N2CCCC(C(=O)NC3CC3)C2)c2c1CCN(C(=O)COc1ccccc1)C2` (stereo unspecified) came in with an RP-LC retention time of 644 s. The value for `c1csc(-c2nc(-c3ccnc(N4CCCC4)c3)no2)c1` was 665 s; that for `CC(C)CN1Cc2c(nc3ccccc3c2C(=O)N2CCC(C)CC2)C1=O` was 834 s; that for `Cc1nnc(N2CCCC(C(=O)NCCc3cccs3)C2)c2nn(-c3ccccc3)c(C)c12` (stereo unspecified) was 720 s. The same measure for `Cc1ccc(S(=O)(=O)CCc2noc(C(=O)NCCc3ccc(S(N)(=O)=O)cc3)n2)cc1`: 724 s; for `O=C(Nc1cccc(OCc2nnc(-c3ccccc3)o2)c1)c1ccsc1`: 914 s; for `CCc1ccc(CN2C(=O)c3c(C(=O)OC)ncn3CC2(C)C(=O)NC2CCCC2)cc1` (stereo unspecified): 816 s. The same measure for `CCCn1cc(CCNC(=O)c2ccc(C)cc2C)c2cccnc21`: 799 s; for `COc1cccc(C(=O)NCC(C)(O)C2CC2)c1OC` (stereo unspecified): 669 s.

`CCc1nncn1C1CCN(S(=O)(=O)c2cccc(C)c2)CC1` came in with an RP-LC retention time of 697 s.

With `Cc1ccc(N2CCCS2(=O)=O)cc1NS(=O)(=O)CCc1ccccc1`, the RP-LC retention time is 784 s. On to `CNC(=O)Cc1csc(NC(=O)CN(C)c2nc3ccccc3s2)n1`, for which the RP-LC retention time came out at 624 s.

On to `Cc1ccc(CN2CCN(CC(=O)NCCCc3ccccc3)C(=O)C2=O)cc1`, for which the RP-LC retention time turned out to be 794 s. Take `CCC(=O)NCc1csc(C2CCCN(C(=O)C(C)(C)C)C2)n1` (stereo unspecified): the RP-LC retention time worked out at 681 s. The value for `COc1ccc(OCC(=O)N2CCN(c3cc(=O)n(C(C)C)c(=O)n3C(C)C)CC2)cc1` was 846 s.

With `COc1ccc(CN(Cc2ccccc2)Cc2cc(=O)n3cc(Cl)ccc3n2)cc1OC`, the RP-LC retention time came to 687 s. The same measure for `CCCn1ncc(N2CCC(C(=O)N3CCCCC3)CC2)cc1=O`: 559 s; for `CCC(CO)NC(=O)C(=O)Nc1ccccc1SC` (stereo unspecified): 710 s. The same measure for `CCNc1nccc(N2CCC(CC(=O)NCc3ccc(OC)c(OC)c3)CC2)n1`: 614 s. The same measure for `Cc1cccc(S(=O)(=O)N(C)CC2CCOC2)c1` (stereo unspecified): 811 s. Turning to `CCCN1N=C(C(=O)N2CCOCC2)S(=O)(=O)c2ccc(Cl)cc21`, the RP-LC retention time was 809 s.

Compound `CNC(=O)C1CCN(C(=O)Nc2ccc(NC(=O)Nc3ccc(OC)cc3)cc2)CC1` showed an RP-LC retention time of 638 s.

On to `CC1=C(c2ccc(F)cc2)S(=O)(=O)N=C1N1CCCN(C(=O)CC2CCCC2)CC1`, for which the RP-LC retention time came out at 883 s. Regarding `CCOC(=O)c1sc2ncnc(N3CCc4ccccc4C3)c2c1C`, the RP-LC retention time was 1310 s. The value for `O=S(=O)(c1cccc2nsnc12)N1CCCC(Cc2noc(-c3cnccn3)n2)C1` (stereo unspecified) was 858 s; that for `Cc1noc(CNC(=O)C2CCN(C(=O)Cc3ccccc3Cl)CC2)n1` was 590 s; that for `CCOc1cccc(CNC(=O)c2cn3c(n2)CCCC3)c1` was 602 s.

`Cc1c2cnn(-c3ccccc3)c(=O)c2c(C)n1C(C)C(=O)NCCN1CCCC1` (stereo unspecified) showed an RP-LC retention time of 617 s.

For `O=C(C1CCN(c2ccc3nncn3n2)CC1)N1CCN(c2ccccn2)CC1`, the RP-LC retention time amounted to 560 s. The same measure for `CCCN(CC1CCOC1)C(=O)Nc1cccc(Cl)c1C` (stereo unspecified): 835 s.

`NC(=O)CCC(NC(=O)Cc1ccccc1)C(=O)O` (stereo unspecified): the RP-LC retention time was 594 s. The value for `O=C(Nc1ccc(F)cc1)C1CCN(S(=O)(=O)c2cc(-c3noc(C4CC4)n3)cs2)CC1` was 1010 s. Compound `CN1C(=O)[C@H]2CN(Cc3cccc(Br)c3)C[C@H]2C1=O` registered an RP-LC retention time of 608 s. The value for `Cc1cc(C)c2sc(N3CCN(C(=O)C4CCCN(S(C)(=O)=O)C4)CC3)nc2c1` (stereo unspecified) was 787 s.

`COc1ccc(C2=NC(c3ccc(Cl)cc3)C(c3ccc(Cl)cc3)N2C(=O)N2CCNC(=O)C2)c(OC(C)C)c1` (stereo unspecified) yielded an RP-LC retention time of 887 s. `COCCCNC(=O)[C@@H]1[C@H](c2cc(OC)c(OC)c(OC)c2)c2cc3c(cc2[C@H](O)[C@H]1CO)OCO3` registered an RP-LC retention time of 630 s. The value for `COc1cccc(CNc2ccc(-c3nc(-c4ccc(F)cc4)no3)cn2)c1` was 1180 s. The value for `COc1ccc(-c2ncccc2CNC(=O)C2CC2)cc1` was 569 s; that for `C[C@@H]1COCCN1c1cc(C2(S(C)(=O)=O)CC2)nc(-c2cccc3[nH]ccc23)n1` was 775 s. The same measure for `COC(=O)c1cc(C)nc2c1c(=O)n(Cc1cccc(F)c1)c(=O)n2Cc1ccco1`: 1100 s; for `CCOc1ccc(NC(=O)C2CCN(S(=O)(=O)c3ccc4c(c3)sc(=O)n4CC)CC2)cc1`: 924 s; for `COc1ccc(Nc2nc(-c3nnn(-c4ccc(Br)cc4F)c3C)ns2)cc1`: 1080 s.
